According to patent US8703815B2, “Small molecules that covalently modify transthyretin” (The Scripps Research Institute, priority 2009, dated 2014):

Experiments:
Assay type in all cases: binding
[1] = molecular target: T1, TTR in human blood plasma (Homo sapiens, UniProt P02766); assay: Modification of TTR in human blood plasma (immunocapture, RP-HPLC); conditions: compound 10.8 μM, 24 hours, 37° C.; maximum 50%
T1 construct: RP-HPLC analysis of TTR captured from human plasma; from tissue; host or cells: human blood plasma
Method: Compounds 1-4 (10.8 μM) were incubated for 24 hours at 37° C. with human plasma, wherein the TTR concentration is 3.6-5.4 μM.
Furthermore, compound A2 was evaluated to determine its ability to bind selectively to and then react chemoselectively with TTR over the 4000+ other proteins in human blood plasma. Compound A2 (10.8 μM) was incubated with human blood plasma (TTR concentration is 3.6-5.4 μM) for 24 hours at 37° C. before immunoisolating human TTR using a Sepharose® resin-conjugated anti-TTR polyclonal antibody [Purkey et al., Proc. Natl. Acad. Sci. U.S.A. 2001, 98, 5566-5571].
The modification ratio of TTR by kinetic stabilizers in human plasma was evaluated as described [Purkey et al., Proc. Natl. Acad. Sci. U.S.A. 98:5566-5571 (2001)] with minor modifications. Briefly, compounds (7.5 μL of 1.44 mM solution in DMSO) were added to 1 mL of human plasma and incubated at 37° C. for 24 hours on a rocker (30 rpm). A 1:1 (v/v) slurry of unfunctionalized Sepharose® resin in 10 mM Tris, 140 mM NaCl, pH 8.0 (TSA) was added and the solutions were incubated for 1 hour at 4° C. on a rocker plate, followed by brief centrifugation.
Two 400 μL aliquots of the supernatants were added to 300 μL of 1:1 (v:v) slurry of anti-TTR antibody-conjugated Sepharose® resin in TSA. The solutions were gently rocked at 4° C. for 20 minutes (30 rpm), centrifuged, and supernatants were removed. The resin was washed by shaking for 1 minute in 1 mL of TSA solution containing 0.05% saponin (three times) and then 1 mL of TSA solution (twice). The TTR and bound test compound were dissociated from the resin by adding 155 μL of triethylamine (100 mM, pH 11.5) and vortexing for 1 minute. After centrifugation, 135 μL of solution containing test compound and TTR was analyzed by RP-HPLC as described above except that the linear gradients were run from 100:0 to 0:100 A:B for 45 minutes.

WT-TTR = molecular target: T2, WT-TTR (Homo sapiens, UniProt P02766); assay: Fluorimetric assay with recombinant WT-TTR; conditions: for increase in fluorescence intensity with WT-TTR vs compound alone in buffer: 24 hours
T2 construct: composed of 127-residue β-sheet-rich subunits; made in house; host or cells: E. coli
Method: WT-TTR was expressed in an E. coli expression system and purified as described previously. […] The samples were vortexed, and incubated for 18 h at 25° C. […] The excitation slit was set at 5 nm and the emission slit was set at […]. The samples were excited at 328 nm and the emission spectra were collected from 350 to 550 nm. WT-TTR was expressed and purified from an E. coli expression system as described previously. [Lashuel et al., Biochemistry 1999, 38:13560]. […] The samples were vortexed, and incubated for 18 hours at 25° C. […] The excitation slits was set at 5 nm and the emission slits was set at […]. The samples were excited at 328 nm and the emission spectra were collected from 330 to 550 nm (FIG. 4). The time-dependent fluorescence changes were monitored in similar manner (FIG. 5).

K15A-TTR = molecular target: T3, K15A-TTR (Homo sapiens, UniProt P02766, K35A); assay: Fluorimetric assay with recombinant K15A-TTR
T3 construct: composed of 127-residue β-sheet-rich subunits; made in house
Method: [The source words this procedure for another variant and says it was used here with some conditions changed.] The excitation spectra are shown with dotted traces (λmax=328 nm), and emission spectra are adjacently (λmax=384 nm). Very low fluorescence resulted from 328 nm excitation of stilbene Compounds 4 or 2 alone in buffer (FIGS. 4A and 4B; traces substantially on the X-axis).
WT-TTR was expressed in an E. coli expression system and purified as described previously. [Lashuel et al., Biochemistry 1999, 38, 13560-13573] The covalent TTR modifiers (A1 or A2) or the non-covalent TTR ligand B2 (5 μL of a 1.44 mM solution in DMSO, final concentration: 7.2 μM) were added to 1 mL of a solution of WT-TTR homotetramer (0.2 mg/mL, 3.6 μM) in 10 mM phosphate, 100 mM KCl and 1 mM EDTA (pH 7.0 phosphate buffer) in a 2 mL Eppendorf tube. The samples were vortexed, and incubated for 18 h at 25° C. The fluorescence changes were monitored using a Varian Cary 50 spectrofluorometer at 20° C. in a 1 cm path length quartz cell. The excitation slit was set at 5 nm and the emission slit was set at […]. The samples were excited at 328 nm and the emission spectra were collected from 350 to 550 nm.
WT-TTR was expressed and purified from an E. coli expression system as described previously. [Lashuel et al., Biochemistry 1999, 38:13560]. The covalent modifiers (Compounds 4 or 2) or the non-covalent TTR ligand Compound B2 (5 μL of a 1.44 mM solution in DMSO) were added to 1 mL of a solution of WT-TTR (0.2 mg/mL, 3.6 μM) in 10 mM phosphate, 100 mM KCl and 1 mM EDTA (pH 7.0) in a 2 mL Eppendorf tube. The samples were vortexed, and incubated for 18 hours at 25° C. The fluorescence changes were monitored using a Varian Cary 50 spectrofluorometer at 20° C. in a 1 cm path length quartz cell. The excitation slits was set at 5 nm and the emission slits was set at […]. The samples were excited at 328 nm and the emission spectra were collected from 330 to 550 nm (FIG. 4). The time-dependent fluorescence changes were monitored in similar manner (FIG. 5).

| Compound | % Modification of TTR subunits in Human Blood Plasma [1] | t50 of conjugation to WT-TTR by fluorescence (WT-TTR; WT-TTR […], compound 7.2 μM) [min] | increase in fluorescence intensity with WT-TTR vs compound alone in buffer (WT-TTR; WT-TTR […], compound 7.2 μM) | fluorescence upon binding to K15A-TTR (in words) (K15A-TTR) | fluorescence after incubation with WT-TTR (in words) (WT-TTR; phosphate buffer pH 7, 18 hours) |
| --- | --- | --- | --- | --- | --- |
| Cc1cc(/C=C/c2cccc(C(=O)Sc3ccccc3)c2)cc(C)c1O [Compound 2, (E)-S-phenyl 3-(4-hydroxy-3,5-dimethylstyryl)benzothioate] | 48% (±1.3%) | 22 | about 1100 fold | remain non-fluorescent |  |
| Cc1cc(/C=C/c2cc(C(=O)Sc3ccc(F)cc3)cc(N(C)C)c2)cc(C)c1O [Compound A2, (E)-S-4-fluorophenyl 3-(dimethylamino)-5-(4-hydroxy-3,5-dimethylstyryl)-benzothioate] | 48% |  |  | no significant fluorescence increase | bright blue fluorescence |
| Cc1cc(/C=C/c2cccc(C(=O)Oc3ccc(F)cc3)c2)cc(C)c1O [Compound 4, (E)-4-fluorophenyl 3-(4-hydroxy-3,5-dimethylstyryl)benzoate] |  |  | about 560 fold | remain non-fluorescent |  |
